# Experiments:
# [1] = tested on: BV2 (mouse microglia) cell line; assay: pHrodo-myelin phagocytosis/cell viability high content imaging assay: phagocytosis signal; type: cell-based
# Description: (§1) It is important to note that stressed cells, such as those that are dying, are prone to show an increase in phagocytosis. […] MerTK promotes phagocytosis and thus MerTK inhibition is proposed to lead to inhibition of phagocytosis.[47]
# (§2) phagocytosis and cell viability simultaneously. High content imaging is performed with the
# (§3) (approximately 22 hours after pHrodo-myelin addition). Three measurements are extracted
# (§4) intensity increase (early apoptosis) and decrease (later apoptosis), respectively. These
# and 3). […]
# [2] = tested on: HMC3 (human microglia) cell line; assay: as above; type: cell-based
# Description: as §1, §2, §3, §4
# and 3). […]
# [3] = tested on: BV2 (mouse microglia) cell line; assay: pHrodo-myelin phagocytosis/cell viability high content imaging assay: viability (cell count, nuclear area, nuclear intensity)
# Description: (§5) All AD Informer Set compounds were tested in two immortalized microglial cell lines, murine (BV2), and human (HMC3), in a high‐content imaging assay in duplicate by the Chu lab. Experimental details and all data can be found as supporting information files.
# (§6) The role of microglia in AD has been well documented and was thus chosen as a cell type in which to profile the AD Informer Set.[43], [44], [45] As an example, neuroinflammation, as detected by the presence of activated complement proteins, interleukins, cytokines, and chemokines in microglia and astrocytes, is increased early in AD and is considered pathogenic due to its chronic nature.[33], [34] Cytotoxic effects can be assessed by considering multiple parameters.
# (§7) Microglial viability and phagocytosis studies: The pHrodo-myelin phagocytosis/cell viability assay, modified based on a published method, was run with immortalized BV2 (mouse microglia) and HMC3 (human microglia) cell lines in the Chu lab at IUSM. The 384-well plate high content analysis assay with BV2 and HMC3 microglial cell lines is used to quantify both phagocytosis and cell viability simultaneously. High content imaging is performed with the ArrayScan automatic imaging system and imaging analysis done with the software on the system. After allowing cells to adhere overnight, they are treated with compounds for total 48 hours including final 20 hours seeded with pHrodo-myelin (labeled phagocytosis ligand, purified […]
# (§8) (approximately 22 hours after pHrodo-myelin addition). Three measurements are extracted from the assay: 1) phagocytosis signal by mean total phagocytosis spot intensity per cell, 2) total cell counts per well as the main measurement of cell viability, and 3) mean average nuclear intensity per cell as profiling of cell health since apoptotic cells showing nuclear intensity increase (early apoptosis) and decrease (later apoptosis), respectively. These measurements allow for evaluation of compound-induced phagocytosis (1) and cytotoxicity (2 and 3). Assays were carried out at a single concentration (10 μM). Idelalisib (10 μM) and cytochalasin-D (4 μM) were used as positive controls in the assay. All data, which was an average of 2 data points, was normalized to untreated wells and reported as % control, which is included in the Supporting Information both as a raw data file and summarized in the compound/gene-annotation file.
# [4] = tested on: HMC3 (human microglia) cell line; assay: as above
# Description: as §5, §6, §7, §8
# [5] = BV2 cells, 10 uM compound, 48 hours treatment, pHrodo-myelin final 20 hours
# [6] = HMC3 cells, 10 uM compound, 48 hours treatment, pHrodo-myelin final 20 hours
# [7] = BV2 cells, 10 uM compound, 48 hours treatment
# [8] = HMC3 cells, 10 uM compound, 48 hours treatment
# [9] = BV2, compound 10 uM, pHrodo-myelin
# [10] = HMC3, compound 10 uM, pHrodo-myelin
# [11] = BV2, compound 10 uM, 48 hours treatment
# [12] = HMC3, compound 10 uM, 48 hours treatment
smiles,measurement,setting,value
CN(C)CC1CCOC1(c1ccccc1)c1ccccc1.Cl (centres unmarked) [UNC10303096A],4. Phagocytosis (% control),[1]; [5],256.6 % control
same,4. Phagocytosis (% control),[2]; [6],111.9 % control
same,1. Cell count (% control),[3]; [7],103.1 % control
same,2. Nuclear Area (% Control),[3]; [7],105.3 % Control
same,3. Nuclear DNA Intensity (% control),[3]; [7],104.2 % control
same,1. Cell count (% control),[4]; [8],129.8 % control
same,2. Nuclear Area (% Control),[4]; [8],100.5 % Control
same,3. Nuclear DNA Intensity (% control),[4]; [8],94.9 % control
C=C(c1ccc(C(=O)O)cc1)c1cc2c(cc1C)C(C)(C)CCC2(C)C [UNC10302949A],4. Phagocytosis (% control),[1]; [5],117.0 % control
same,4. Phagocytosis (% control),[2]; [6],79.3 % control
same,1. Cell count (% control),[3]; [7],91.0 % control
same,2. Nuclear Area (% Control),[3]; [7],109.3 % Control
same,3. Nuclear DNA Intensity (% control),[3]; [7],95.6 % control
same,1. Cell count (% control),[4]; [8],131.9 % control
same,2. Nuclear Area (% Control),[4]; [8],99.3 % Control
same,3. Nuclear DNA Intensity (% control),[4]; [8],94.9 % control
Nc1ncnc2c1nc(Sc1ccc(Cl)cc1)n2[C@@H]1O[C@@H]2COP(=O)([O-])O[C@H]2[C@H]1O.[Na+] [UNC10302890A],4. Phagocytosis (% control),[1]; [5],104.7 % control
same,4. Phagocytosis (% control),[2]; [6],84.6 % control
same,1. Cell count (% control),[3]; [7],107.7 % control
same,2. Nuclear Area (% Control),[3]; [7],106.8 % Control
same,3. Nuclear DNA Intensity (% control),[3]; [7],98.4 % control
same,1. Cell count (% control),[4]; [8],115.9 % control
same,2. Nuclear Area (% Control),[4]; [8],99.4 % Control
same,3. Nuclear DNA Intensity (% control),[4]; [8],99.1 % control
CNC(=O)c1c(F)cccc1Nc1nc(Nc2cc3c(cc2OC)CCN3C(=O)CN(C)C)nc2[nH]ccc12 [UNC10302864A],4. Phagocytosis (% control),[1]; [5],89.4 % control
same,4. Phagocytosis (% control),[2]; [6],58.3 % control
same,1. Cell count (% control),[3]; [7],66.3 % control
same,2. Nuclear Area (% Control),[3]; [7],109.6 % Control
same,3. Nuclear DNA Intensity (% control),[3]; [7],102.8 % control
same,1. Cell count (% control),[4]; [8],108.9 % control
same,2. Nuclear Area (% Control),[4]; [8],90.1 % Control
same,3. Nuclear DNA Intensity (% control),[4]; [8],123.0 % control
O=c1[nH]c2ccccc2n1C1CCN(CCCC(c2ccc(F)cc2)c2ccc(F)cc2)CC1 [UNC10101002A],4. Phagocytosis (% control),[1]; [9],134.9 % control
same,4. Phagocytosis (% control),[2]; [10],140.6 % control
same,1. Cell count (% control),[3]; [11],77.1 % control
same,2. Nuclear Area (% Control),[3]; [11],99.5 % Control
same,3. Nuclear DNA Intensity (% control),[3]; [11],98.4 % control
same,1. Cell count (% control),[4]; [12],97.6 % control
same,2. Nuclear Area (% Control),[4]; [12],104.3 % Control
same,3. Nuclear DNA Intensity (% control),[4]; [12],96.0 % control
CCCCCCOc1cc2c(cc1N(C)c1ncc(C(=O)O)cn1)C(C)(C)CCC2(C)C [UNC10302707A],4. Phagocytosis (% control),[1]; [9],161.8 % control
same,4. Phagocytosis (% control),[2]; [10],53.6 % control
same,1. Cell count (% control),[3]; [11],135.9 % control
same,2. Nuclear Area (% Control),[3]; [11],104.8 % Control
same,3. Nuclear DNA Intensity (% control),[3]; [11],101.8 % control
same,1. Cell count (% control),[4]; [12],137.9 % control
same,2. Nuclear Area (% Control),[4]; [12],106.3 % Control
same,3. Nuclear DNA Intensity (% control),[4]; [12],90.2 % control
CCc1cc2c(cc1N1CCC(N3CCOCC3)CC1)C(C)(C)c1[nH]c3cc(C#N)ccc3c1C2=O [UNC10245077A],4. Phagocytosis (% control),[1]; [9],169.6 % control
same,4. Phagocytosis (% control),[2]; [10],22.4 % control
same,1. Cell count (% control),[3]; [11],128.2 % control
same,2. Nuclear Area (% Control),[3]; [11],94.3 % Control
same,3. Nuclear DNA Intensity (% control),[3]; [11],130.0 % control
same,1. Cell count (% control),[4]; [12],0.0 % control
same,2. Nuclear Area (% Control),[4]; [12],0.0 % Control
same,3. Nuclear DNA Intensity (% control),[4]; [12],0.0 % control
Cc1cc(O)cc2c1[C@]1(C)CC[C@H]3C(C)(C)CCC[C@]3(C)[C@H]1C2 [AQX-MN100],Stimulation of mouse microglial phagocytosis at 10 μM (>150% control),"[1]; 10 μM, BV2",Y (The compound was found to stimulate phagocytosis (response threshold: >150% control) when murine immortalized microglial cells were dosed at 10 μM (Y: yes))
COS(=O)(=O)[O-].C[n+]1c2ccccc2nc2ccccc21 [UNC10302857A],4. Phagocytosis (% control),[1]; [5],27.9 % control
same,4. Phagocytosis (% control),[2]; [6],0.031 % control
same,1. Cell count (% control),[3]; [7],16.9 % control
same,2. Nuclear Area (% Control),[3]; [7],123.3 % Control
same,3. Nuclear DNA Intensity (% control),[3]; [7],59.8 % control
same,1. Cell count (% control),[4]; [8],60.7 % control
same,2. Nuclear Area (% Control),[4]; [8],61.5 % Control
same,3. Nuclear DNA Intensity (% control),[4]; [8],197.5 % control
C=C1[C@@H](C)[C@H]2[C@H](Cc3ccccc3)NC(=O)[C@]23[C@H](OC(C)=O)/C=C/[C@@](C)(O)C(=O)[C@@H](C)C/C=C/[C@H]3[C@@H]1O [Cytochalasin-D],4. Phagocytosis (% control),"[1]; BV2, control compound at 4uM, pHrodo-myelin",18.4 % control
same,4. Phagocytosis (% control),"[2]; HMC3, control compound at 4uM, pHrodo-myelin",4.8 % control
same,1. Cell count (% control),"[3]; BV2, control compound at 4uM",9.1 % control
same,2. Nuclear Area (% Control),"[3]; BV2, control compound at 4uM",119.3 % Control
same,3. Nuclear DNA Intensity (% control),"[3]; BV2, control compound at 4uM",141.3 % control
same,1. Cell count (% control),"[4]; HMC3, control compound at 4uM",57.1 % control
same,2. Nuclear Area (% Control),"[4]; HMC3, control compound at 4uM",76.9 % Control
same,3. Nuclear DNA Intensity (% control),"[4]; HMC3, control compound at 4uM",178.9 % control
CC/C(=C(\c1ccccc1)c1ccc(OCCN(C)C)cc1)c1ccccc1 [Tamoxifen],Stimulation of mouse microglial phagocytosis at 10 μM (>150% control),"[1]; BV2, 10 μM",Y (The compound was found to stimulate phagocytosis (response threshold: >150% control) when murine immortalized microglial cells were dosed at 10 μM (Y: yes))
CC(C)CCOc1ccc(N)cc1 [UNC10302876A],4. Phagocytosis (% control),[1]; [5],110.6 % control
same,4. Phagocytosis (% control),[2]; [6],89.8 % control
O=c1ccc2c(OCCCCc3ccccc3)c3ccoc3cc2o1 [Psora-4 (5-(4-Phenylbutoxy)psoralen)],Stimulation of mouse microglial phagocytosis at 10 μM (>150% control),"[1]; 10 μM, BV2",Y (The compound was found to stimulate phagocytosis (response threshold: >150% control) when murine immortalized microglial cells were dosed at 10 μM (Y: yes))
same,Inhibition of human microglial phagocytosis at 10 μM (<70% control),"[2]; 10 μM, HMC3",Y (The compound was found to inhibit phagocytosis (response threshold: <70% control) when human immortalized microglial cells were dosed at 10 μM (Y: yes))
COc1ccc(/C=C/C(=O)c2ccc(OC)cc2OC)cc1 [Metochalcone],Stimulation of mouse microglial phagocytosis at 10 μM (>150% control),"[1]; BV2, 10 μM",Y (The compound was found to stimulate phagocytosis (response threshold: >150% control) when murine immortalized microglial cells were dosed at 10 μM (Y: yes))
same,Human microglial cytotoxicity at 10 μM (<70% control),"[4]; HMC3, 10 μM, cell count <70% control",Y (The compound was found to be cytotoxic (cell count threshold: <70% control) when human immortalized microglial cells were dosed at 10 μM (Y: yes))
CC(=O)O.Cc1c(-c2ccc(O)cc2)n(Cc2ccc(OCCN3CCCCCC3)cc2)c2ccc(O)cc12 [UNC10245115A],4. Phagocytosis (% control),[1]; [5],0.00966 % control
same,4. Phagocytosis (% control),[2]; [6],0.00872 % control
O=c1ccc2c(OCCCCOc3ccccc3)c3ccoc3cc2o1 [PAP-1 (5-(4-Phenoxybutoxy)psoralen)],Stimulation of mouse microglial phagocytosis at 10 μM (>150% control),"[1]; 10 μM, BV2",Y (The compound was found to stimulate phagocytosis (response threshold: >150% control) when murine immortalized microglial cells were dosed at 10 μM (Y: yes))
O=C(NC12C[C@H]3C[C@@H](C1)C[C@@H](C2)C3)N[C@H]1CC[C@H](Oc2ccc(C(=O)O)cc2)CC1 [UNC10303108A],4. Phagocytosis (% control),[1]; [5],153.6 % control
same,4. Phagocytosis (% control),[2]; [6],109.9 % control
O=C(NC12C[C@H]3C[C@@H](C1)C[C@@H](C2)C3)N[C@H]1CC[C@H](Oc2ccc(C(=O)O)cc2)CC1 [t-AUCB],Stimulation of mouse microglial phagocytosis at 10 μM (>150% control),"[1]; BV2, 10 μM",Y (The compound was found to stimulate phagocytosis (response threshold: >150% control) when murine immortalized microglial cells were dosed at 10 μM (Y: yes))

# Reference: PMC9019904, “AD Informer Set: Chemical tools to facilitate Alzheimer's disease drug discovery” (Alzheimer's & Dementia : Translational Research & Clinical …, 2022)
